Results published in patent USRE47302E1 (ONYX THERAPEUTICS INC., priority 2013, dated 2019).
Values after ≈ are worked out from the molar mass of the structure shown.

What was measured:
[1] = target: human constitutive 20S proteasome (c20S) (Homo sapiens, UniProt P28074); experiment: 20S proteasome assay, chymotrypsin-like activity (succinyl-Leu-Leu-Val-Tyr-AMC), c20S; format: biochemical; details: LLVY substrate, 1 h continuous
From the text: (§1) Assay buffer consisted of TE buffer [20 mmol/L Tris (pH 8.0), 0.5 mmol/L EDTA] with (20S) or without (cell lysate) 0.03% SDS. Reactions were initiated by enzyme or lysate addition and monitored for AMC product formation at 27jC with a plate-based spectofluorometer (Tecan).

[2] = target: human 20S immunoproteasome (i20S) (Homo sapiens, UniProt P28062); experiment: 20S proteasome assay, chymotrypsin-like activity (succinyl-Leu-Leu-Val-Tyr-AMC), i20S; format: biochemical; details: LLVY substrate, 1 h continuous
From the text: as §1

Solubility pH 7 = details: pH 7, aqueous buffer
[3] = target: T1, proteasome subunit β5 (beta5) (Homo sapiens, UniProt P28074); experiment: Proteasome active-site ELISA (ProCISE), beta5, MOLT-4 lysate; format: biochemical; details: MOLT4 lysate, human, 1 h continuous treatment, 25° C.
T1 construct: Lysate from the human acute lymphoblastic leukemia cell line, MOLT-4; endogenous in cells; host or cells: MOLT-4
Method in brief: (§2)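 MOLT-4 cell lysate treated 1 h at 25 °C with compound; probe-bound subunits denatured, pulled down on streptavidin beads and detected with subunit-specific antibodies plus HRP chemiluminescence.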

[4] = target: T2, immunoproteasome subunit LMP7 (Homo sapiens, UniProt P28062); experiment: Proteasome active-site ELISA (ProCISE), LMP7, MOLT-4 lysate; format: biochemical; details: MOLT4 lysate, 1 h continuous treatment, 25° C.
T2 construct: Lysate from the human acute lymphoblastic leukemia cell line, MOLT-4; endogenous in cells; host or cells: MOLT-4
Method in brief: as §2

| Compound | IC50 [1] [nM] | IC50 [2] [nM] | solubility (Solubility pH 7) [µg/mL] | IC50 [3] [nM] | IC50 [4] [nM] |
| --- | --- | --- | --- | --- | --- |
| COc1ccc(C[C@H](NC(=O)[C@@H](C)NC(=O)[C@H]2C[C@H](O)C2)C(=O)N[C@@H](CC2CCCC2)C(=O)[C@@]2(C)CO2)cc1 [Compound C-1041, (1r,3R)-N-((R)-1-(((S)-1-(((S)-3-cyclopentyl-1-((R)-2-methyloxiran-2-yl)-1-oxopropan-2-yl)amino)-3-(4-methoxyphenyl)-1-oxopropan-2-yl)amino)-1-oxopropan-2-yl)-3-hydroxycyclobutanecarboxamide] | 7030 | 232 | 1830 (≈ 3360 µM) | 12500 | 440 |
| COc1ccc(C[C@H](NC(=O)[C@H](C)NC(=O)CN2CCC(F)(F)CC2)C(=O)N[C@@H](CC2CCCC2)C(=O)[C@@]2(C)CO2)cc1 [Compound C-1046, (S)-N-((S)-3-cyclopentyl-1-((R)-2-methyloxiran-2-yl)-1-oxopropan-2-yl)-2-((S)-2-(2-(4,4-difluoropiperidin-1-yl)acetamido)propanamido)-3-(4-methoxyphenyl)propanamide] | 361 | 63.5 | 152 (≈ 250 µM) | 198 | 37.9 |
| C[C@H](NC(=O)CN1CCOCC1)C(=O)N[C@@H](Cc1ccc(C(N)=O)cc1)C(=O)N[C@@H](CC1CCCC1)C(=O)[C@@]1(C)CO1 [Compound C-1049, 4-((S)-3-(((S)-3-cyclopentyl-1-((R)-2-methyloxiran-2-yl)-1-oxopropan-2-yl)amino)-2-((S)-2-(2-morpholinoacetamido)propanamido)-3-oxopropyl)benzamide] | 305 | 66.8 | 3510 (≈ 5990 µM) | 796 | 153 |
| C[C@H](NC(=O)CN1CCOCC1)C(=O)N[C@@H](Cc1ccc(C#N)cc1)C(=O)N[C@@H](CC1CCCC1)C(=O)[C@@]1(C)CO1 [Compound C-1050, (S)-3-(4-cyanophenyl)-N-((S)-3-cyclopentyl-1-((R)-2-methyloxiran-2-yl)-1-oxopropan-2-yl)-2-((S)-2-(2-morpholinoacetamido)propanamido)propanamide] | 277 | 53.5 | 1280 (≈ 2250 µM) | 765 | 116 |
| C[C@@H](NC(=O)C1CCOCC1)C(=O)N[C@@H](Cc1ccc(S(C)(=O)=O)cc1)C(=O)N[C@@H](CC1CCCC1)C(=O)[C@@]1(C)CO1 [Compound C-1051, N-((R)-1-(((S)-1-(((S)-3-cyclopentyl-1-((R)-2-methyloxiran-2-yl)-1-oxopropan-2-yl)amino)-3-(4-(methylsulfonyl)phenyl)-1-oxopropan-2-yl)amino)-1-oxopropan-2-yl)tetrahydro-2H-pyran-4-carboxamide] | 978 | 45.1 | 702 (≈ 1160 µM) | 705 | 90.8 |
| COc1ccc(C[C@H](NC(=O)[C@@H](C)NC(=O)[C@@H]2CCCOC2)C(=O)N[C@@H](CC2CCCC2)C(=O)[C@@]2(C)CO2)cc1 [Compound C-1052, (R)-N-((R)-1-(((S)-1-(((S)-3-cyclopentyl-1-((R)-2-methyloxiran-2-yl)-1-oxopropan-2-yl)amino)-3-(4-methoxyphenyl)-1-oxopropan-2-yl)amino)-1-oxopropan-2-yl)tetrahydro-2H-pyran-3-carboxamide] | 515 | 44.5 | 706 (≈ 1270 µM) | 512 | 101 |
| COc1ccc(C[C@H](NC(=O)[C@@H](C)NC(=O)[C@H]2CCCOC2)C(=O)N[C@@H](CC2CCCC2)C(=O)[C@@]2(C)CO2)cc1 [Compound C-1053, (S)-N-((R)-1-(((S)-1-(((S)-3-cyclopentyl-1-((R)-2-methyloxiran-2-yl)-1-oxopropan-2-yl)amino)-3-(4-methoxyphenyl)-1-oxopropan-2-yl)amino)-1-oxopropan-2-yl)tetrahydro-2H-pyran-3-carboxamide] | 3770 | 98.9 | 648 (≈ 1160 µM) | 4540 | 270 |
| C[C@H](NC(=O)CN1CCOCC1)C(=O)N[C@@H](Cc1ccc(S(N)(=O)=O)cc1)C(=O)N[C@@H](CC1CCCC1)C(=O)[C@@]1(C)CO1 [Compound C-1054, (S)-N-((S)-3-cyclopentyl-1-((R)-2-methyloxiran-2-yl)-1-oxopropan-2-yl)-2-((S)-2-(2-morpholinoacetamido)propanamido)-3-(4-sulfamoylphenyl)propanamide] | 667 | 76.5 | 2860 (≈ 4600 µM) | 805 | 131 |
| COc1ccc(C[C@H](NC(=O)[C@@H](C)NC(=O)C2COC2)C(=O)N[C@@H](CC2=CCCC2)C(=O)[C@@]2(C)CO2)cc1 [Compound C-1055, N-((R)-1-(((S)-1-(((S)-3-(cyclopent-1-en-1-yl)-1-((R)-2-methyloxiran-2-yl)-1-oxopropan-2-yl)amino)-3-(4-methoxyphenyl)-1-oxopropan-2-yl)amino)-1-oxopropan-2-yl)oxetane-3-carboxamide] | 4440 | 149 | 1300 (≈ 2460 µM) | 7150 | 953 |
| COc1ccc(C[C@H](NC(=O)[C@@H](C)NC(=O)[C@H]2CC[C@@H](O)CC2)C(=O)N[C@@H](CC2=CCCC2)C(=O)[C@@]2(C)CO2)cc1 [Compound C-1056, (1s,4S)-N-((R)-1-(((S)-1-(((S)-3-(cyclopent-1-en-1-yl)-1-((R)-2-methyloxiran-2-yl)-1-oxopropan-2-yl)amino)-3-(4-methoxyphenyl)-1-oxopropan-2-yl)amino)-1-oxopropan-2-yl)-4-hydroxycyclohexanecarboxamide] | 46.8 | 4.7 | 298 (≈ 523 µM) | 17.4 | 2.72 |
| COc1ccc(C[C@H](NC(=O)[C@@H](C)NC(=O)[C@H]2CC[C@H](O)CC2)C(=O)N[C@@H](CC2=CCCC2)C(=O)[C@@]2(C)CO2)cc1 [Compound C-1057, (1r,4R)-N-((R)-1-(((S)-1-(((S)-3-(cyclopent-1-en-1-yl)-1-((R)-2-methyloxiran-2-yl)-1-oxopropan-2-yl)amino)-3-(4-methoxyphenyl)-1-oxopropan-2-yl)amino)-1-oxopropan-2-yl)-4-hydroxycyclohexanecarboxamide] | 595 | 5.3 | 491 (≈ 862 µM) | 2550 | 34 |
| COc1ccc(C[C@H](NC(=O)[C@@H](C)NC(=O)C2CCOCC2)C(=O)N[C@@H](CC2CCCC2)C(=O)[C@@]2(C)CO2)cc1O [Compound C-1061, N-((R)-1-(((S)-1-(((S)-3-cyclopentyl-1-((R)-2-methyloxiran-2-yl)-1-oxopropan-2-yl)amino)-3-(3-hydroxy-4-methoxyphenyl)-1-oxopropan-2-yl)amino)-1-oxopropan-2-yl)tetrahydro-2H-pyran-4-carboxamide] | 756 | 15.4 | 2050 (≈ 3580 µM) | 978 | 70.8 |
| COc1ccc(C[C@H](NC(=O)[C@@H](C)NC(=O)C2CCOCC2)C(=O)N[C@@H](CC2=CCCC2)C(=O)[C@@]2(C)CO2)cc1O [Compound C-1062, N-((R)-1-(((S)-1-(((S)-3-(cyclopent-1-en-1-yl)-1-((R)-2-methyloxiran-2-yl)-1-oxopropan-2-yl)amino)-3-(3-hydroxy-4-methoxyphenyl)-1-oxopropan-2-yl)amino)-1-oxopropan-2-yl)tetrahydro-2H-pyran-4-carboxamide] | 232 | 20.2 | 140 (≈ 245 µM) | 388 | 38.4 |
| COc1ccc(C[C@H](NC(=O)[C@@H](C)NC(=O)C2CC3(COC3)C2)C(=O)N[C@@H](CC2=CCCC2)C(=O)[C@@]2(C)CO2)cc1 [Compound C-1063, N-((R)-1-(((S)-1-(((S)-3-(cyclopent-1-en-1-yl)-1-((R)-2-methyloxiran-2-yl)-1-oxopropan-2-yl)amino)-3-(4-methoxyphenyl)-1-oxopropan-2-yl)amino)-1-oxopropan-2-yl)-2-oxaspiro[3.3]heptane-6-carboxamide] | 169 | 14.9 | 1310 (≈ 2310 µM) | 443 | 90.7 |
| COc1ccc(C[C@H](NC(=O)CNC(=O)CN2CCOCC2)C(=O)N[C@@H](Cc2ccccc2)C(=O)[C@@]2(C)CO2)cc1 [Compound C-1153, (S)-3-(4-methoxyphenyl)-N-((S)-1-((R)-2-methyloxiran-2-yl)-1-oxo-3-phenylpropan-2-yl)-2-(2-(2-morpholinoacetamido)acetamido)propanamide] | 2430 | 278 | 3270 (≈ 5780 µM) | 4170 | 208 |
| COc1ccc(C[C@H](NC(=O)[C@H](CO)NC(=O)CN2CCOCC2)C(=O)N[C@@H](Cc2ccccc2)C(=O)[C@@]2(C)CO2)cc1 [Compound C-1159, (S)-3-hydroxy-N-((S)-3-(4-methoxyphenyl)-1-(((S)-1-((R)-2-methyloxiran-2-yl)-1-oxo-3-phenylpropan-2-yl)amino)-1-oxopropan-2-yl)-2-(2-morpholinoacetamido)propanamide] | 473 | 43 | 1910 (≈ 3210 µM) | 454 | 43.1 |
